Measurements: patent US6596756B1, “Treatment of fibromyalgia” (Eli Lilly and Company, priority 1999, dated 2003)
Read-outs that look alike come from different tables or passages of the source.

Key:
[1] = system: formalin-induced paw-licking behavior in the rat; conditions: for Early Phase (sum of time spent licking, 0 to 5 minutes) / Late Phase (sum of seconds spent licking, 15 to 40 minutes): mean ± SEM
Source text: (Shibata, M., Ohkubo, T., Takahashi, H., and Inoki, R., “Modified formalin test: Characteristic biphasic pain response,” Pain (1989) 38: 347-352; and Tjolsen, A., Berge, O. G., Hunskaar, S., Rosland, J. H., and Hole, K., “The formalin test: an evaluation of the method,” Pain (1992) 51:5-17.) The effect of duloxetine on formalin-induced paw-licking behavior in the rat was investigated as an index of persistent nociceptive activation. In this test, the injection of formalin under the skin on the dorsal lateral surface of the hind paw of rats causes an immediate and intense increase in the spontaneous activity of C fiber afferents. This activation evokes a distinctly quantifiable behavior indicative of pain, such as licking, flinching, shaking or biting of the injected paw. The behavioral response to formalin is biphasic, with an early phase that is short lived, followed by an extended tonic response or late phase of persistent nociceptive activation. Mechanisms causing the late phase response, such as central sensitization of pain transmitting neurons, are currently believed to contribute to various types of persistent pains.
(§1) Male Sprague-Dawley rats (200-250 g; Charles River, Portage, Mich.) were maintained at constant temperature and light (12 h light/12 h dark) for 4-7 days prior to the studies. Animals had free access to food and water at all times prior to the day of the experiment.
The formalin test was performed in custom made Plexiglas® boxes 25×25×20 cm (length×width×height) in size. A mirror placed at the back of the box allowed the unhindered observation of the formalin injected paw. Rats were acclimatized individually in the cubicles at least 1 hour prior to the experiment. All testing was conducted between 08:00 and 14:00 hr and the testing room temperature was maintained at 21-23° C. Test compound was administered 30 or 60 minutes prior to the formalin injection. Formalin (50 μl of a 5% solution in saline) was injected subcutaneously into the dorsal lateral surface of the right hind paw with a 27 gauge needle. Observation started immediately after the formalin injection. Formalin-induced pain was quantified by recording in 5 minute intervals the number of formalin injected paw licking events and the number of seconds each licking event lasted. These recordings were made for 50 minutes after the formalin injection. After the experiment, animals were killed with an overdose of CO2. (Euthanasia protocol, Eli Lilly Animal Use and Care Committee.)
Scoring in the formalin test was performed according to Coderre et al., 1993b and Abbott et al., 1995. (Coderre T. J., Fundytus M. E., McKenna J. E., Dalal S. and Melzack R. “The formalin test: a validation of the weighted-scores method of the behavioral pain rating,” Pain(1993b) 54: 43-50; and Abbott F. V., Franklin K. B. J. and Westbrook R. F. “The formalin test: scoring properties of the first and second phases of the pain response in rats,” Pain (1995) 60: 91-102.) The sum of time spent licking in seconds from time 0 to 5 minutes was considered the early phase while the late phase was taken as the sum of seconds spent licking from 15 to 40 minutes.
Data are presented as means with standard errors of means (±SEM). Data were evaluated by one-way analysis of variance (ANOVA) and the appropriate contrasts analyzed by Tukey's test and Dunnett “t” test for two-sided comparisons.

[2] = system: Male Sprague-Dawley rats; conditions: rat; for Ataxia score 80 mins after drug, i.p. / Ataxia score, 30 mins after drug, i.p. / Ataxia Score, 60 mins after drug, p.o. / Ataxia score 110 mins after drug, p.o.: maximum score 40 seconds, mean ± SEM
Protocol: The tendency of duloxetine to induce ataxia or neuromuscular effects at analgesic doses was investigated using the well-known rotorod test.
as §1
An automated accelerating rotorod (Omnitech Electronics Inc., Columbus, Ohio) connected to an IBM PC computer was utilized. For training and testing purposes, the rotorod was set up to accelerate to 17 r.p.m. in 5 seconds and maintaining that speed for 40 seconds. Rats were given 3 training trials to learn to maintain posture on the rotorod prior to the actual day of drug testing. The following day, rotorod testing was conducted both at 30 and 80 minutes for i.p. and at 60 and 110 minutes for p.o. following administration of drug or compound.
All data were analyzed using the JMP statistical program. Data are presented as means with standard errors of means (±SEM). Data were evaluated by one-way analysis of variance (ANOVA) and the appropriate contrasts analyzed by Tukey's test and Dunnett “t” test for two-sided comparisons.

[3] = system: mechanical allodynia due to the nerve ligation in rats; conditions: rat; for Allodynia Response: nerve ligation, mean ± SEM, p < 0.05 vs vehicle
Protocol: All data were analyzed using the JMP statistical program. […] Data were evaluated by one-way analysis of variance (ANOVA) and the appropriate contrasts analyzed by Tukey's test and Dunnett “t” test for two-sided comparisons.

[4] = 3 mg/kg i.p., 30 min before formalin
[5] = 3 mg/kg p.o., 60 min before formalin

SMILES: CNCCC(Oc1cccc2ccccc12)c1cccs1 (stereo not drawn) [duloxetine, N-methyl-3-(1-naphthalenyloxy)-3-(2-thienyl)propanamine]
- Early Phase (sum of time spent licking, 0 to 5 minutes) [1, 4]: 32.78 ± 15.97 s
- Late Phase (sum of seconds spent licking, 15 to 40 minutes) [1, 4]: 254.00 ± 45.87 s
- Early Phase (sum of time spent licking, 0 to 5 minutes) [1, 5]: 21.78 ± 5.14 s
- Late Phase (sum of seconds spent licking, 15 to 40 minutes) [1, 5]: 393.56 ± 26.74 s
- Early Phase (sum of time spent licking, 0 to 5 minutes) ([1]; 10 mg/kg i.p., 30 min before formalin): 17.00 ± 5.83 s
- Late Phase (sum of seconds spent licking, 15 to 40 minutes) ([1]; 10 mg/kg i.p., 30 min before formalin, p < 0.05 vs vehicle): 163.89 ± 54.14 s
- Early Phase (sum of time spent licking, 0 to 5 minutes) ([1]; 10 mg/kg p.o., 60 min before formalin): 20.22 ± 5.29 s
- Late Phase (sum of seconds spent licking, 15 to 40 minutes) ([1]; 10 mg/kg p.o., 60 min before formalin, p < 0.05 vs vehicle): 255.78 ± 38.22 s
- Early Phase (sum of time spent licking, 0 to 5 minutes) ([1]; 15 mg/kg i.p., 30 min before formalin): 29.56 ± 16.30 s
- Late Phase (sum of seconds spent licking, 15 to 40 minutes) ([1]; 15 mg/kg i.p., 30 min before formalin, p < 0.05 vs vehicle): 80.44 ± 36.22 s
- Early Phase (sum of time spent licking, 0 to 5 minutes) ([1]; 20 mg/kg p.o., 60 min before formalin): 12.67 ± 3.61 s
- Late Phase (sum of seconds spent licking, 15 to 40 minutes) ([1]; 20 mg/kg p.o., 60 min before formalin, p < 0.05 vs vehicle): 161.11 ± 31.77 s
- effect on late phase response to formalin (in words) ([1]; i.p. and p.o. dosing): blocks the late phase response to formalin in a dose-dependent manner
- Ataxia score 80 mins after drug, i.p. ([2]; 3 mg/kg i.p.): 33.35 ± 3.23 s
- Ataxia score, 30 mins after drug, i.p. ([2]; 3 mg/kg i.p.): 34.27 ± 4.02 s
- Ataxia Score, 60 mins after drug, p.o. ([2]; 3 mg/kg p.o.): 40.00 ± 0.00 s
- Ataxia score 110 mins after drug, p.o. ([2]; 3 mg/kg p.o.): 40.00 ± 0.00 s
- Ataxia score 80 mins after drug, i.p. ([2]; 10 mg/kg i.p.): 26.07 ± 6.24 s
- Ataxia score, 30 mins after drug, i.p. ([2]; 10 mg/kg i.p.): 29.42 ± 6.71 s
- Ataxia Score, 60 mins after drug, p.o. ([2]; 10 mg/kg p.o.): 39.11 ± 0.89 s
- Ataxia score 110 mins after drug, p.o. ([2]; 10 mg/kg p.o.): 39.56 ± 0.44 s
- Ataxia Score, 60 mins after drug, p.o. ([2]; 20 mg/kg p.o.): 40.00 ± 0.00 s
- Ataxia score 110 mins after drug, p.o. ([2]; 20 mg/kg p.o.): 40.00 ± 0.00 s
- Ataxia score 80 mins after drug, i.p. ([2]; 30 mg/kg i.p.): 25.52 ± 5.89 s
- Ataxia score, 30 mins after drug, i.p. ([2]; 30 mg/kg i.p.): 24.75 ± 6.88 s
- ataxia or neuromuscular effects in the rotorod test (in words) ([2]; at doses that caused analgesia): did not show ataxia or neuromuscular effects
- effect on allodynia following partial ligation of the sciatic nerve (in words) ([3]; after acute or sub-chronic systemic administration): attenuates the allodynia
- Allodynia Response ([3]; 15 mg/kg i.p., 1 hour pretreatment): 8.57 ± 1.72 g
- Allodynia Response ([3]; 20 mg/kg p.o., 1 hour pretreatment): 8.53 ± 1.66 g
- Allodynia Response ([3]; 20 mg/kg × 4 day p.o., sub-chronic pretreatment (once a day for four consecutive days)): 9.18 ± 2.95 g
